# According to PubChem BioAssay AID1963835 (Molecular Pharmacology Branch, DTP, NCI, 2024):
# System: 699152-130-R-J1-PDC complex spheroid viability
# Experiment: Anticancer human tumor 699152-130-R-J1-PDC patient-derived pancreatic carcinoma cell line growth inhibition [POLQ]
# Details: for IC50: curve of first compound; for viability, T/C: stronger effect = lower value
# Description: Multicellular complex tumor spheroid response to Polymerase (POL) inhibitors (novobiocin, ART-558, RP6685) in combination with a variety of drugs and investigational agents in selected tumor cell lines
# The POL inhibitors (novobiocin, ART-558, and RP6685) were evaluated both individually and in combination with standard of care and investigational anticancer small molecules within a complex spheroid model of solid tumors. . Complex spheroids include a stromal component modeled by human endothelial cells (HUVEC) and fibroblasts modeled by human mesenchymal stem cells (MSCs). The concentration ranges selected for each drug and investigational agent were based upon clinically achievable concentrations if the clinical Cmax of the agent was known.
# Compounds. The drugs and investigational agents: novobiocin (NSC847541), ART-558 (NSC835418), RP-6685 (NSC848927), peposertib (NSC802822), ceralasertib (NSC780249), elimusertib (NSC800525), camonsertib (NSC841442), AZD-1390 (NSC803789), olaparib (NSC753686), talazoparib (NSC767125), rucaparib (NSC756644), sotorasib (NSC818433), MRTX-1133 (NSC836407), SN-38 (NSC673596), topotecan (NSC609699), epotoside (NSC141540), doxorubicin (NSC123127), gemcitabine (NSC613327), 5-fluorouracil (NSC19893), paclitaxel (NSC125973), vemurafenib (NSC761431), MSA-2 (NSC828583), SN-011 (NSC837082), adavosertib (NSC754352), prexasertib (NSC758257), carboplatin (NSC241240) and oxaliplatin (NSC266046), were obtained from the National Cancer Institute (NCI) Developmental Therapeutics Program Chemical Repository (21). The FDA-approved anticancer drug set is available from the Developmental Therapeutics Program at https://dtp.cancer.gov/organization/dscb/obtaining/. […] The stock solutions were prepared in dimethyl sulfoxide (DMSO, Sigma-Aldrich, St. Louis, MO, cat. D2650), except for the platinum compounds which were prepared in saline (Quality Biological, Gaithersburg, MD, cat. 114-055-101), at 800-fold the tested concentration and stored at -70 degrees C prior to their use. All drugs and investigational agents were tested over a range starting from a high concentration at or near the clinical Cmax and decreasing in half-log increments. If the clinical Cmax for an agent had not been determined, the highest concentration tested was 10 microM, except for SN-38, which was tested at a high concentration of 1 microM.
# Cell Culture. All cells were maintained in an incubator at 37 degrees C and 5% CO2 with 95% humidity. The PDC lines were cultured according to standard operating procedures established by the NCI PDMR (https://pdmr.cancer.gov). Table 3 of the manuscript, lists the cell lines along with the number of the three cell types plated to form the mct-spheroids and media for tumor cell growth. After thawing, all PDC lines, except 997537-175-T-J1-PDC and 415267-285-R-J2-PDC, were cultured in Matrigel-coated flasks prepared with a working solution of 1X Ham's F-12 nutrient mix, without supplementation (Thermo Fisher Scientific, cat. 11765054), 100 U/mL penicillin-streptomycin (Thermo Fisher Scientific, cat. 15140122), and 2.5% Matrigel (Corning Inc., Corning, NY, cat. 354248) for the first three passages. The two PDC lines 997537-175-T-J1-PDC and 415267-285-R-J2-PDC were cultured on uncoated flasks. The 857933-349-R-J2-PDC line was cultured in 6C/Colon 1B media containing advanced DMEM/F-12 (Thermo Fisher Scientific, cat. 12634028), 10 mM HEPES (Thermo Fisher Scientific, cat. 15630080), 1X GlutaMAX supplement (Thermo Fisher Scientific, cat. 35050061), 0.1 mg/mL primocin (InvivoGen, San Diego, CA, cat. ant-pm-2), 10% defined fetal bovine serum, heat inactivated (HyClone Laboratories Inc., Logan, UT, cat. SH30070.03HI), 50% L-WRN conditioned media (ATCC, cat. CRL-3276), 1.25 mM N-Acetyl-L-cysteine (Sigma-Aldrich, cat. A9165), 10 mM nicotinamide (Sigma-Aldrich, cat. N0636), 1X B-27 supplement (Thermo Fisher Scientific, cat. 17504044), 1X N-2 supplement (Thermo Fisher Scientific, cat. […]
# [1] = second compound 0.0316 µM, first compound 0.0316 µM
# [2] = second compound 0.0316 µM, first compound 0.1 µM
# [3] = second compound 0.0316 µM, first compound 0.316 µM
# [4] = second compound 0.0316 µM, first compound 1 µM
# [5] = second compound 0.0316 µM, first compound 3.16 µM
# [6] = second compound 0.0316 µM, first compound 10 µM
# [7] = second compound 0.1 µM, first compound 0.0316 µM
# [8] = second compound 0.1 µM, first compound 0.1 µM
# [9] = second compound 0.1 µM, first compound 0.316 µM
# [10] = second compound 0.1 µM, first compound 1 µM
# [11] = second compound 0.1 µM, first compound 3.16 µM
# [12] = second compound 0.1 µM, first compound 10 µM
# [13] = second compound 0.316 µM, first compound 0.0316 µM
# [14] = second compound 0.316 µM, first compound 0.1 µM
# [15] = second compound 0.316 µM, first compound 0.316 µM
# [16] = second compound 0.316 µM, first compound 1 µM
# [17] = second compound 0.316 µM, first compound 3.16 µM
# [18] = second compound 0.316 µM, first compound 10 µM
# [19] = second compound 1 µM, first compound 0.0316 µM
# [20] = second compound 1 µM, first compound 0.1 µM
# [21] = second compound 1 µM, first compound 0.316 µM
# [22] = second compound 1 µM, first compound 1 µM
# [23] = second compound 1 µM, first compound 3.16 µM
# [24] = second compound 1 µM, first compound 10 µM
# [25] = second compound 3.16 µM, first compound 0.0316 µM
# [26] = second compound 3.16 µM, first compound 0.1 µM
# [27] = second compound 3.16 µM, first compound 0.316 µM
# [28] = second compound 3.16 µM, first compound 1 µM
# [29] = second compound 3.16 µM, first compound 3.16 µM
# [30] = second compound 3.16 µM, first compound 10 µM
# [31] = second compound 10 µM, first compound 0.0316 µM
# [32] = second compound 10 µM, first compound 0.1 µM
# [33] = second compound 10 µM, first compound 0.316 µM
# [34] = second compound 10 µM, first compound 1 µM
# [35] = second compound 10 µM, first compound 3.16 µM
# [36] = second compound 10 µM, first compound 10 µM
# 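Also: spheroids exposed to agents for 7 days before viability reading.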
# 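For viability, T/C in this document: percent of DMSO vehicle control viability so 100% = vehicle and 0% = no viable signal.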
structure (smiles),measurement,setting,value
Nc1ccn(C2OC(CO)C(O)C2(F)F)c(=O)n1 (stereo unspecified) + COC1C(OC(N)=O)C(O)C(Oc2ccc3c(O)c(NC(=O)c4ccc(O)c(CC=C(C)C)c4)c(=O)oc3c2C)OC1(C)C,IC50,second compound 0.0316 µM,0.202 µM
same,IC50,second compound 0.1 µM,0.262 µM
same,IC50,second compound 0.316 µM,0.376 µM
same,IC50,second compound 1 µM,0.264 µM
same,IC50,second compound 3.16 µM,0.475 µM
same,IC50,second compound 10 µM,0.765 µM
same,"viability, T/C",[1],68.1%
same,"viability, T/C",[2],52.2%
same,"viability, T/C",[3],42.9%
same,"viability, T/C",[4],48.3%
same,"viability, T/C",[5],39%
same,"viability, T/C",[6],31.2%
same,"viability, T/C",[7],73.5%
same,"viability, T/C",[8],56.1%
same,"viability, T/C",[9],48.7%
same,"viability, T/C",[10],44.8%
same,"viability, T/C",[11],35.4%
same,"viability, T/C",[12],34.3%
same,"viability, T/C",[13],64.4%
same,"viability, T/C",[14],56.6%
same,"viability, T/C",[15],49.7%
same,"viability, T/C",[16],44.4%
same,"viability, T/C",[17],46.4%
same,"viability, T/C",[18],35.4%
same,"viability, T/C",[19],70%
same,"viability, T/C",[20],51.5%
same,"viability, T/C",[21],53.3%
same,"viability, T/C",[22],45.1%
same,"viability, T/C",[23],43.2%
same,"viability, T/C",[24],40.1%
same,"viability, T/C",[25],61.7%
same,"viability, T/C",[26],55.6%
same,"viability, T/C",[27],51.4%
same,"viability, T/C",[28],51.5%
same,"viability, T/C",[29],37.1%
same,"viability, T/C",[30],40.8%
same,"viability, T/C",[31],72.1%
same,"viability, T/C",[32],56.7%
same,"viability, T/C",[33],54.8%
same,"viability, T/C",[34],51.3%
same,"viability, T/C",[35],44.1%
same,"viability, T/C",[36],38%
CCCS(=O)(=O)Nc1ccc(F)c(C(=O)c2c[nH]c3ncc(-c4ccc(Cl)cc4)cc23)c1F + Cc1cccc(N(C)C(=O)C2C(O)CCN2c2nc(C)cc(C(F)(F)F)c2C#N)c1,IC50,second compound 0.0316 µM,8.18 µM
same,IC50,second compound 0.1 µM,8.55 µM
same,IC50,second compound 0.316 µM,8.18 µM
same,IC50,second compound 1 µM,8.6 µM
same,IC50,second compound 3.16 µM,8.56 µM
same,IC50,second compound 10 µM,8.17 µM
same,"viability, T/C",[1],110%
same,"viability, T/C",[2],101%
same,"viability, T/C",[3],120%
same,"viability, T/C",[4],162%
same,"viability, T/C",[5],175%
same,"viability, T/C",[6],32.2%
same,"viability, T/C",[7],105%
same,"viability, T/C",[8],103%
same,"viability, T/C",[9],126%
same,"viability, T/C",[10],143%
same,"viability, T/C",[11],199%
same,"viability, T/C",[12],36.5%
same,"viability, T/C",[13],103%
same,"viability, T/C",[14],99.5%
same,"viability, T/C",[15],125%
same,"viability, T/C",[16],159%
same,"viability, T/C",[17],195%
same,"viability, T/C",[18],31.6%
same,"viability, T/C",[19],109%
same,"viability, T/C",[20],112%
same,"viability, T/C",[21],141%
same,"viability, T/C",[22],152%
same,"viability, T/C",[23],172%
same,"viability, T/C",[24],36.6%
same,"viability, T/C",[25],124%
same,"viability, T/C",[26],112%
same,"viability, T/C",[27],118%
same,"viability, T/C",[28],140%
same,"viability, T/C",[29],181%
same,"viability, T/C",[30],36.5%
same,"viability, T/C",[31],117%
same,"viability, T/C",[32],103%
same,"viability, T/C",[33],134%
same,"viability, T/C",[34],146%
same,"viability, T/C",[35],175%
same,"viability, T/C",[36],31.7%
O=c1[nH]cc(F)c(=O)[nH]1 + Cc1cccc(N(C)C(=O)C2C(O)CCN2c2nc(C)cc(C(F)(F)F)c2C#N)c1,IC50,second compound 0.0316 µM,> 10 µM
same,IC50,second compound 0.1 µM,> 10 µM
same,IC50,second compound 0.316 µM,> 10 µM
same,IC50,second compound 1 µM,> 10 µM
same,IC50,second compound 3.16 µM,> 10 µM
same,IC50,second compound 10 µM,> 10 µM
same,"viability, T/C",[1],105%
same,"viability, T/C",[2],109%
same,"viability, T/C",[3],107%
same,"viability, T/C",[4],113%
same,"viability, T/C",[5],102%
same,"viability, T/C",[6],74.1%
same,"viability, T/C",[7],110%
same,"viability, T/C",[8],113%
same,"viability, T/C",[9],99.2%
same,"viability, T/C",[10],107%
same,"viability, T/C",[11],100%
same,"viability, T/C",[12],82.6%
same,"viability, T/C",[13],120%
same,"viability, T/C",[14],122%
same,"viability, T/C",[15],106%
same,"viability, T/C",[16],107%
same,"viability, T/C",[17],120%
same,"viability, T/C",[18],79.9%
same,"viability, T/C",[19],108%
same,"viability, T/C",[20],104%
same,"viability, T/C",[21],104%
same,"viability, T/C",[22],111%
same,"viability, T/C",[23],92.1%
same,"viability, T/C",[24],74.7%
same,"viability, T/C",[25],113%
same,"viability, T/C",[26],116%
same,"viability, T/C",[27],108%
same,"viability, T/C",[28],104%
same,"viability, T/C",[29],117%
same,"viability, T/C",[30],87.3%
same,"viability, T/C",[31],103%
same,"viability, T/C",[32],102%
same,"viability, T/C",[33],104%
same,"viability, T/C",[34],92.8%
same,"viability, T/C",[35],91.3%
same,"viability, T/C",[36],84.6%
